# In patent publication US20260092114A1, “TREATMENT OF LUNG CANCER USING A COMBINATION OF AN ANTI-PD-1 ANTIBODY AND ANOTHER ANTI-CANCER AGENT” (Bristol-Myers Squibb Company, priority 2016, published 2026):
# Read-outs that look alike come from different tables or passages of the source.
# Tests used:
# previously treated NSCLC = conditions: cited from earlier work
# PD-1 = PD-1 (Homo sapiens, UniProt Q15116); set-up: endogenous in cells; conditions: across all doses 0.3 mg/kg to 10 mg/kg, 15 subjects; cited from earlier work
# [1] = tested on: metastatic squamous cell NSCLC; conditions: cited from earlier work
# [2] = nivolumab pharmacokinetics, population pharmacokinetic (PPK) analysis; assay type: in vivo, human; conditions: for Cavgss Geo. Mean / Cmaxss Geo. Mean / Cminss Geo. Mean: geometric mean (cv %)
# Method: Nivolumab monotherapy has been studied in NSCLC patient population in studies CA209003, CA209063, CA209017, and CA209057 with body weight normalized dosing (mg/kg). Nivolumab pharmacokinetics (PK) and exposures of subjects in these studies have been characterized by population pharmacokinetic (PPK) analysis of data collected these studies, together with PK data from several phase 1, 2, and 3 clinical studies of nivolumab monotherapy in solid tumors. Nivolumab PK was determined to be linear, with dose proportional exposures over a dose range of 0.1 to 10 mg/kg. […] Conversely, given the relationship between nivolumab PK and body weight, a flat dose is expected to lead to lower exposures in heavier patients, relative to the exposures in lighter patients.
# Table 3 presents summary statistics of the estimated nivolumab steady-state trough, peak and time-averaged concentration (Cminss, Cmaxss, and Cavgss, respectively) in NSCLC subjects receiving 3 mg/kg, together with corresponding statistics of exposures predicted for a flat nivolumab dose of 240 mg. It should be noted that a dose of 240 mg nivolumab is identical to a dose of 3 mg/kg for subjects weighing 80 kg, which is the approximate median body weight of NSCLC subjects in the 3 phase 2 and 3 clinical studies of nivolumab monotherapy in NSCLC patients (CA209017, CA209057, and CA209063).
# [3] = tested on: metastatic squamous cell NSCLC; conditions: CA209063, 117 patients; cited from earlier work
# [4] = nivolumab monotherapy tolerability across clinical studies; assay type: in vivo
# [5] = tested on: second line or later NSCLC; conditions: 3 mg/kg dose, cited from earlier work
# [6] = tested on: CMV specific memory T cells; test: CMV re-stimulation assay with human PBMC; assay type: cell-based; conditions: dose-dependent, versus isotype-matched control
# From the text: (Topalian S L et al. N Eng J Med 2012; 366: 2443-54.)
# [7] = tested on: chemotherapy-naive advanced NSCLC; test: CA209012 Phase 1 study, nivolumab monotherapy and nivolumab plus ipilimumab, first line; assay type: in vivo, human
# Method: Nivolumab monotherapy at 3 mg/kg every 2 weeks has been evaluated in one of several cohorts of chemotherapy-naive patients with advanced NSCLC in study CA209012. Results from this cohort (n=52), including 13 subjects with squamous histology and 39 subjects with non-squamous histology, show an overall response rate (ORR) of 23% and a disease control rate (DCR) of 50%. The PFS rate at 24 weeks is 41%, with a median PFS of 16 weeks. The OS rate at 12 months is 74%, and the median overall survival (OS) is 22.6 months. The majority of responses have been durable, with the median duration of response not reached. In contrast, the median OS for patients with non-squamous histology who receive platinum doublet chemotherapy is 13 months, and for those with squamous histology is 10 months. (Ellis et al. J Clin Oncol (2014) 32:1277-1280.)
# The nivolumab plus ipilimumab combination has been also evaluated at several different doses and schedules as first line therapy in patients with advanced NSCLC in CA209012, an ongoing Phase 1 study of nivolumab as monotherapy and in combination with a variety of agents. Early cohorts evaluated 2 different dosing schedules: nivolumab 1 mg/kg+ipilimumab 3 mg/kg, every 3 weeks for four cycles as induction, followed by nivolumab 3 mg/kg every 2 weeks; or nivolumab 3 mg/kg+ipilimumab 1 mg/kg, every 3 weeks for four cycles as induction, followed by nivolumab 3 mg/kg every 2 weeks.
# Thus, a third combination cohort was initiated: nivolumab 1 mg/kg+ipilimumab 1 mg/kg every 3 weeks (“1+1”) for 4 cycles as induction, followed by nivolumab 3 mg/kg every 2 weeks as maintenance. This dosing regimen has been much better tolerated with only 13% of subjects experiencing treatment-related AEs leading to discontinuation. […] The ORR is 16%, and the DCR is 58%. The PFS rate at 24 weeks is 55% with a median PFS of 46.1 weeks. The OS rate at 12 months is 63%, and the median OS is not reached. Activity has been observed in patients with both PD-L1 positive (PD-L1+) and PD-L1 negative (PD-L1−) tumors. […]
# Analyses based on archival specimens for subjects in CA209012 have shown that subjects with both PD-L1+(IHC greater than or equal to 5%) and PD-L1 tumors may benefit from treatment with nivolumab. […] However, the disease control rate (DCR, CR+PR+SD) was 54% for those with PD-L1+ tumors and 50% for those with PD-L1− tumors. […] Again there was less of a difference in the DCR between the 2 groups: 53% for those with PD-L1+ tumors and 51% for those with PD-L1− tumors. For subjects receiving nivolumab monotherapy, the PFS rate at 24 weeks was 40% and 45% for patients with PD-L1+ and PD-L1− tumors respectively; the median OS was 19.1 months in subjects with PD-L1+ tumors and not reached in subjects with PD-L1− tumors. For subjects receiving nivolumab plus ipilimumab, the median PFS was 21.7 weeks and 12.4 weeks in PD-L1+ and PD-L1− tumors respectively; the median OS was 21.5 months in subjects with PD-L1+ tumors and 19.4 months in subjects with PD-L1− tumors. […]
# NSCLC = conditions: cited from earlier work; for median OS with maintenance therapy: non-squamous NSCLC patients, maintenance after platinum doublet
# [8] = CA184022 study of ipilimumab; assay type: in vivo, human
# Method: Similarly, ipilimumab at 10 mg/kg has been safely administered over a 90 minute duration. In the CA184022 study, where ipilimumab was administered up to a dose of 10 mg/kg, on-study drug related hypersensitivity events (Grade 1-2) were reported in 1 (1.4%) subject in the 0.3 mg/kg and in 2 (2.8%) subjects in the 10 mg/kg group. […] Ipilimumab 10 mg/kg monotherapy has also been safely administered as 90 minute infusion in large phase 3 studies in prostate cancer (CA184043) and as adjuvant therapy for stage 3 melanoma (CA184029), with infusion reactions occurring in subjects. Administering 1 mg/kg of ipilimumab represents one-tenth of the 10 mg/kg dose.
# [9] = dose 3 (mg/kg), NSCLC subjects, estimated
# [10] = monotherapy 3 mg/kg every 2 weeks, n=52
# Sequence of PD-1 (Q15116 25-288): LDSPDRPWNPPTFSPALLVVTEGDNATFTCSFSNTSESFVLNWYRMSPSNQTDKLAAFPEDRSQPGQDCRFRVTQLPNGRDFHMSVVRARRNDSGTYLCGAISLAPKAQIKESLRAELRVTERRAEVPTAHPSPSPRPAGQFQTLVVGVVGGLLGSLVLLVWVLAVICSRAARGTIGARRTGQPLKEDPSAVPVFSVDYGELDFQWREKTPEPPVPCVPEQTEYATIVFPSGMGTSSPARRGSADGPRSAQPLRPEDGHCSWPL
compound,measurement,setting,value
nivolumab,objective response rates,previously treated NSCLC,~25%
same,progression-free survival (PFS) rate at 24 weeks,previously treated NSCLC,~45%
same,mean PD-1 occupancy rate,PD-1,85%
same,mean plateau occupancy,PD-1,72%
same,HR for overall survival vs docetaxel,[1]; CA209017,0.59
same,median overall survival (OS),[1]; CA209017,9.6 months
same,treatment-related deaths (grade 5 event),[1]; CA209017,none
same,patients with a Grade 3-5 treatment-related event,[1]; in vivo,6.9%
same,coefficient of variation (cv %) of exposure greater than that of 3 mg/kg dosing,[2]; 240 mg flat vs 3 mg/kg,< 10%
same,"geometric mean Cminss, Cmaxss and Cavgss with flat dosing higher than with 3 mg/kg",[2]; 240 mg flat vs 3 mg/kg,< 15%
same,PK in global and Japanese subjects,[2]; comparison of PK parameters,similar
same,Cavgss Geo. Mean,[2]; [9],73.3 (35.6)
same,Cmaxss Geo. Mean,[2]; [9],118.9 (31.8)
same,Cminss Geo. Mean,[2]; [9],54.7 (41.9)
same,PK linearity,"[2]; dose range of 0.1 to 10 mg/kg, dose proportional exposures",linear
same,Cavgss Geo. Mean,"[2]; flat dose 240 (mg), predicted",82.4 (38.2)
same,Cmaxss Geo. Mean,"[2]; flat dose 240 (mg), predicted",133.7 (35.0)
same,Cminss Geo. Mean,"[2]; flat dose 240 (mg), predicted",61.5 (44.6)
same,half-life,[2]; in vivo,up to 25 days
same,overall response rate (ORR),[3],15%
same,safety and tolerability,[4]; Japanese subjects,safe and well tolerated
same,dose achieved without reaching the maximum tolerated dose (MTD),"[4]; monotherapy, every two weeks",> 10 mg/kg
same,safety and tolerability,[4]; up to a dose level of 10 mg/kg,safe and well tolerated
same,24-week PFS rate,[5]; non-squamous,42%
same,objective response rate (ORR),[5]; non-squamous,26%
same,24-week PFS rate,[5]; squamous,45%
same,objective response rate (ORR),[5]; squamous,22%
same,IFN-7 secretion from CMV specific memory T cells,[6],augmented IFN-7 secretion
same,PFS rate at 24 weeks,[7]; PD-L1+ tumors,40%
same,"disease control rate (DCR, CR+PR+SD)",[7]; PD-L1+ tumors,54%
same,median OS,[7]; PD-L1+ tumors,19.1 months
same,overall response rate (ORR),[7]; PD-L1+ tumors (IHC >= 5%),31%
same,PFS rate at 24 weeks,[7]; PD-L1− tumors,45%
same,"disease control rate (DCR, CR+PR+SD)",[7]; PD-L1− tumors,50%
same,median OS,[7]; PD-L1− tumors,not reached
same,overall response rate (ORR),[7]; PD-L1− tumors,15%
same,OS rate at 12 months,[7]; [10],74%
same,PFS rate at 24 weeks,[7]; [10],41%
same,disease control rate (DCR),[7]; [10],50%
same,median PFS,[7]; [10],16 weeks
same,median overall survival (OS),[7]; [10],22.6 months
same,overall response rate (ORR),[7]; [10],23%
Nc1nc2[nH]cc(CCc3ccc(C(=O)N[C@@H](CCC(=O)O)C(=O)O)cc3)c2c(=O)[nH]1 [pemetrexed],median OS with maintenance therapy,NSCLC,~13.9 month
paclitaxel/carboplatin,"arthralgia, Grade 3/4","NSCLC; human, in vivo",6%
same,"fatigue, Grade 3/4","NSCLC; human, in vivo",5%
same,"febrile neutropenia, Grade 3/4","NSCLC; human, in vivo",3%
same,"neuropathy, Grade 2/3","NSCLC; human, in vivo",18%
"CC(=O)O[C@@]12CO[C@@H]1C[C@H](O)[C@@]1(C)C(=O)[C@H](O)C3=C(C)[C@@H](OC(=O)[C@H](O)[C@@H](NC(=O)OC(C)(C)C)c4ccccc4)C[C@@](O)([C@@H](OC(=O)c4ccccc4)[C@H]21)C3(C)C [docetaxel, reference compound]",median overall survival (OS),[1]; CA209017,6 months
same,patients with a Grade 3-5 treatment-related event,[1]; CA209017,Fifty-seven
same,treatment-related deaths (grade 5 event),[1]; CA209017,3
same,historical ORR,NSCLC; second-line,8-10%
same,historical median PFS,NSCLC; second-line,approximately 3 months
bevacizumab: monoclonal antibody that blocks vascular endothelial growth factor A (VEGF-A),median OS with maintenance therapy,NSCLC,~13.9 month
"ipilimumab: fully human, IgG1 monoclonal antibody that blocks the binding of CTLA-4 to its B7 ligands",drug related hypersensitivity events (Grade 1-2),[8]; 0.3 mg/kg group,1.4%
same,drug-related hypersensitivity events,[8]; 3 mg/kg group,no drug-related hypersensitivity events
same,drug related hypersensitivity events (Grade 1-2),[8]; 10 mg/kg group,2.8%
same,Grade 3-4 drug-related hypersensitivity events,[8]; across the 3 treatment groups,no Grade 3-4 drug-related hypersensitivity events
gemcitabine/cisplatin,"alopecia, all grades","NSCLC; human, in vivo",21%
same,"fatigue, Grade 3/4","NSCLC; human, in vivo",5%
same,"febrile neutropenia, Grade 3/4","NSCLC; human, in vivo",4%
same,rate of Grade 3/4 anemia,"NSCLC; human, in vivo",10%
same,rate of Grade 3/4 neutropenia,"NSCLC; human, in vivo",27%
same,rate of Grade 3/4 thrombocytopenia,"NSCLC; human, in vivo",13%
same,"vomiting, Grade 3/4","NSCLC; human, in vivo",6%
